# Laboratory results taken from USRE50082E1, “(5,6-dihydro)pyrimido[4,5-e]indolizines” (NETHERLANDS TRANSLATIONAL RESEARCH CENTER B.V., priority 2014, dated 2024).
# Legend:
# A375 = conditions: mouse xenograft model; cited from earlier work
# A2780 = conditions: mouse xenograft model; cited from earlier work
# human cancer cell lines = conditions: Colombo et al.; read-out: IC50 proliferation of cancer cell lines from different tumor origin; cited from earlier work
# [1] = system: HeLa-Matu cervical tumor cell; conditions: cited from earlier work
# MOLT-4 cancer cell line = assay: Cell proliferation assay, MOLT-4 cancer cell line (ATPlite); assay type: cell-based; conditions: Homo sapiens, MOLT-4; worded 'TTK cellular assay'; read-out: IC50 in the TTK cellular assay;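 also: luminescence read-out, percent growth versus compound-free DMSO wells as maximum growth, start-of-incubation signal separating growth from cell death, IC50 from logistic curve fit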
# [2] = target: Polo-like kinase 1 (PLK1) (Homo sapiens, UniProt P53350); assay: Biochemical Polo-like kinase 1 kinase assay (LANCE Ultra TR-FRET)
# Protocol: To determine the inhibitory activity of the compounds on Polo-like kinase 1 (PLK1), the LANCE® Ultra TR-FRET assay (Perkin Elmer) was used. […] After 4 hours, the reaction was stopped by the addition of 5 μl 100 mM EDTA. […] Time-resolved fluorescence was measured on an Envision multilabel reader (Perkin Elmer, Waltham, Mass. USA). IC50 were calculated using XLfit™5 software (ID Business Solutions, Ltd., Surrey, U.K.).
# Aurora A = target: T1, Aurora A (Homo sapiens, UniProt O14965); assay: Biochemical Aurora A kinase assay (LANCE Ultra TR-FRET)
# T1 construct: full-length Aurora A enzyme (Carna Biosciences, cat. no. 05-101); purchased Carna Biosciences 05-101
# T1 sequence (O14965 1-403): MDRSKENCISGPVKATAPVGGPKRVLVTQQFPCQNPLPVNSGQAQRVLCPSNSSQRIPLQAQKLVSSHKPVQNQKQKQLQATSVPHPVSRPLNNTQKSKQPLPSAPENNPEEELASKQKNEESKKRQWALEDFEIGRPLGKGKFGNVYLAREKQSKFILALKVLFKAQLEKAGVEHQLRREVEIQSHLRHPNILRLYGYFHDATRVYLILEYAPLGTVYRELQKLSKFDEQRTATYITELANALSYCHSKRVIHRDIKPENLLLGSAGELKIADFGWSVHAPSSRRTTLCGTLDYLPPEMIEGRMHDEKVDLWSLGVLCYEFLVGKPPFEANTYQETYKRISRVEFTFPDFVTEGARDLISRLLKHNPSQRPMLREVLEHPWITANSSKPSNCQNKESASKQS
# Protocol: To determine the inhibitory activity of the compounds on Aurora A, the LANCE® Ultra TR-FRET assay (Perkin Elmer) was used. […] After 2 hours, the reaction was stopped by the addition of 5 μl 100 mM EDTA. […] Time-resolved fluorescence was measured on an Envision multilabel reader (Perkin Elmer, Waltham, Mass., USA). IC50 were calculated using XLfit™5 software (ID Business Solutions, Ltd., Surrey, U.K.).
# Aurora C = target: T2, Aurora C (Homo sapiens, UniProt Q9UQB9); assay: Biochemical Aurora C kinase assay (LANCE Ultra TR-FRET)
# T2 construct: full-length Aurora C enzyme (Carna Biosciences, cat. no. 05-103); purchased Carna Biosciences 05-103
# T2 sequence (Q9UQB9 1-309): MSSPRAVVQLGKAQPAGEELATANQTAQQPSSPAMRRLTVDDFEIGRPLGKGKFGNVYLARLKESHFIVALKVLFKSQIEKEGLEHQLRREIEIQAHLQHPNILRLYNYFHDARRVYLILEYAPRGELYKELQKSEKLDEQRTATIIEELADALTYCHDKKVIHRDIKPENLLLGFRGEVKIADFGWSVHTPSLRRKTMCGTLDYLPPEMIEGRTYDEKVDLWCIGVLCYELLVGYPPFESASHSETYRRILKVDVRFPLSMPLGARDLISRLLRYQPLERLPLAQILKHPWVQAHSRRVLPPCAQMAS
# Protocol: To determine the inhibitory activity of the compounds on Aurora C, the LANCE® Ultra TR-FRET assay (Perkin Elmer) was used. […] After pre-incubation of 1 hour in the dark at room temperature, ULightTM-labeled PLK([MUT]) substrate peptide (Perkin Elmer, cat. no. TRF-0110) and ATP were added, to start the reaction. […] After 3 hours, the reaction was stopped by the addition of 5 μl 100 mM EDTA. […] Time-resolved fluorescence was measured on an Envision multilabel reader (Perkin Elmer, Waltham, Mass., USA). IC50 were calculated using XLfitTM5 software (ID Business Solutions, Ltd., Surrey, U.K.).
# Polo-like kinase 1 (PLK1), sequence (P53350 whole entry): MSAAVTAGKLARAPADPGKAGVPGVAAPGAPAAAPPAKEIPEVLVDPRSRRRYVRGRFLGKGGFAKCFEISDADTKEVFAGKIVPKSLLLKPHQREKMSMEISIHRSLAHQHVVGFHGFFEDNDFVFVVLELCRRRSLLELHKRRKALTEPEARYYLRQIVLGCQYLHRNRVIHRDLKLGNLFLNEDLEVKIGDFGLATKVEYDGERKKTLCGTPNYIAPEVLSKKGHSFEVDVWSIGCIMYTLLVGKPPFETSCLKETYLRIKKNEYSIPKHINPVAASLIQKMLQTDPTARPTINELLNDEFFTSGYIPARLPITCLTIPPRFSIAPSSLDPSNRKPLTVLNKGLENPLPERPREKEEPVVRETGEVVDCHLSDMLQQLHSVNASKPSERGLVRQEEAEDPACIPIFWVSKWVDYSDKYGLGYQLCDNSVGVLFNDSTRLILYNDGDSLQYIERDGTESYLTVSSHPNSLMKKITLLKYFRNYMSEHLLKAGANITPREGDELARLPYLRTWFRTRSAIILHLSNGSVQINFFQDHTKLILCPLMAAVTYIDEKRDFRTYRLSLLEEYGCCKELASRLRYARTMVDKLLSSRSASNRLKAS
smiles,measurement,setting,value
CCc1cccc(CC)c1NC(=O)c1nn(C)c2c1CCc1cnc(Nc3ccc(C(=O)NC4CCN(C)CC4)cc3OC(F)(F)F)nc1-2 [NMS-P715],"Tumor growth, A375 xenograft",A375,inhibited tumor growth
same,"Tumor growth, A2780 xenograft",A2780,inhibited tumor growth
same,IC50,human cancer cell lines,≥ 1000 nM
CC(C)CNc1nccn2c(-c3ccc(C(=O)NC4CC4)cc3)cnc12 [Mps-BAY2b],Efficacy of paclitaxel in combination,"[1]; HeLa-Matu mouse xenograft model, with paclitaxel",increased the efficacy of paclitaxel
same,HeLa-Matu cervical tumor cell growth,[1]; mouse xenograft model,inhibit HeLa-Matu cervical tumor cell growth
"CCOCCOCCn1nc(CC)c(NC(=O)c2ccn3c2CCc2cnc(Nc4ccc(N5CCN(C)CC5)cc4OC)nc2-3)c1CC [Example 150, N-[1-[2-(2-ethoxyethoxy)ethyl]-3,5-diethyl-pyrazol-4-yl]-2-[2-methoxy-4-(4-methylpiperazin-1-yl)anilino]-5,6-dihydropyrimido[4,5-e]indolizine-7-carboxamide]",IC50,MOLT-4 cancer cell line,< 50 nM
same,IC50,[2],≥ 250 nM
same,PLK1 Selectivity,[2]; IC50 PLK1/IC50 TTK (biochemical assays),>500
same,AurA Selectivity,Aurora A; IC50 AurA/IC50 TTK (biochemical assays),>200
same,IC50,"Aurora A; full-length Aurora A, 2 μM ATP",≥ 100 nM
same,AurC Selectivity,Aurora C; IC50 AurC/IC50 TTK (biochemical assays),>500
same,IC50,"Aurora C; full-length Aurora C, 5 μM ATP",≥ 100 nM
